Reference: patent US5639780A, “N-benzyl indol-3-yl butanoic acid derivatives as cyclooxygenase inhibitors” (priority 1995, dated 1997)
Where a name gives a salt, the structure may show the parent alone. Read-outs that look alike come from different tables or passages of the source.

What was measured:
[1] = target: T1, cyclooxygenase-1 (human U-937 cells) (Homo sapiens, UniProt P23219); assay: Inhibition of cyclooxygenase-1: PGE2 production in human U-937 cells, whole cell assay; type: cell-based; settings: PGE2 synthesis in response to arachidonic acid, read-out: Cox-1 IC50
T1 construct: human U-937 cells (which specifically express cyclooxygenase-1); endogenous in cells; host or cells: human U-937 cells

rat paw edema = assay: Rat Paw Edema Assay (carrageenan), edema inhibition; type: in vivo, Male Sprague-Dawley rats; settings: po 1 hr before carrageenan, paw volume at 3 hr
Experimental: Rat Paw Edema Assay-Protocol
Male Sprague-Dawley rats (150-200 g) are fasted overnight and are given po either vehicle (1% methocel or 5% Tween 80) or a test compound. One hr later, a line is drawn using a permanent marker at the level above the ankle in one hind paw to define the area of the paw to be monitored. The paw volume (V0) is measured using a plethysmometer (Ugo-Basile, Italy) based on the principle of water displacement. The animals are then injected subplantarly with […] of 1% carrageenan solution in saline (FMC Corp, Maine) into the paw using an insulin syringe with a 25-gauge needle (i.e., […] carrageenan per paw). Three hr later, the paw volume (V3) is measured and the increases in paw volume (V3 -V0) are calculated. The animals are sacrificed by CO2 asphyxiation and the absence or presence of stomach lesions scored. Data is compared with the vehicle-control values and percent inhibition calculated. All treatment groups are coded to eliminate observer bias.

[2] = target: T2, cyclooxygenase-2 (human osteosarcoma 143 cells) (Homo sapiens, UniProt P35354); assay: Inhibition of cyclooxygenase-2: PGE2 production in human osteosarcoma 143 cells, whole cell assay; type: cell-based
T2 construct: human osteosarcoma 143 cells (which specifically express cyclooxygenase-2); endogenous in cells; host or cells: human osteosarcoma 143 cells
T2 sequence (P35354 18-604): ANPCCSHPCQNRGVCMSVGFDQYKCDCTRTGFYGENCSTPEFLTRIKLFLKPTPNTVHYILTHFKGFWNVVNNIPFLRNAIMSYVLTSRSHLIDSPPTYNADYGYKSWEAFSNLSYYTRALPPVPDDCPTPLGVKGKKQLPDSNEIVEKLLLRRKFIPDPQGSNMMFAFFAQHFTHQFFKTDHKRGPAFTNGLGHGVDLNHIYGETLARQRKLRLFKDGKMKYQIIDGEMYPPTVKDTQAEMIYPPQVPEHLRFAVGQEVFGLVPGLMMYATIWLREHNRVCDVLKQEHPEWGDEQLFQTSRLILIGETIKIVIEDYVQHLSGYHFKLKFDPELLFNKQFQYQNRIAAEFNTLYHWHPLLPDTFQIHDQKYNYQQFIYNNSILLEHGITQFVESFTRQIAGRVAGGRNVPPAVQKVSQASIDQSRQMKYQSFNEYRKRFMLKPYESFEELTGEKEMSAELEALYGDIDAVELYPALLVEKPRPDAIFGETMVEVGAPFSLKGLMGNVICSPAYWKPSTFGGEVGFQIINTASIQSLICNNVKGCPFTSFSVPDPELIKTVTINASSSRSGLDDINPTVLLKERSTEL

[3] = human osteosarcoma 143 cells, whole cell, PGE2 synthesis in response to arachidonic acid, read-out: Cox-2 IC50

T1 sequence (P23219 24-599): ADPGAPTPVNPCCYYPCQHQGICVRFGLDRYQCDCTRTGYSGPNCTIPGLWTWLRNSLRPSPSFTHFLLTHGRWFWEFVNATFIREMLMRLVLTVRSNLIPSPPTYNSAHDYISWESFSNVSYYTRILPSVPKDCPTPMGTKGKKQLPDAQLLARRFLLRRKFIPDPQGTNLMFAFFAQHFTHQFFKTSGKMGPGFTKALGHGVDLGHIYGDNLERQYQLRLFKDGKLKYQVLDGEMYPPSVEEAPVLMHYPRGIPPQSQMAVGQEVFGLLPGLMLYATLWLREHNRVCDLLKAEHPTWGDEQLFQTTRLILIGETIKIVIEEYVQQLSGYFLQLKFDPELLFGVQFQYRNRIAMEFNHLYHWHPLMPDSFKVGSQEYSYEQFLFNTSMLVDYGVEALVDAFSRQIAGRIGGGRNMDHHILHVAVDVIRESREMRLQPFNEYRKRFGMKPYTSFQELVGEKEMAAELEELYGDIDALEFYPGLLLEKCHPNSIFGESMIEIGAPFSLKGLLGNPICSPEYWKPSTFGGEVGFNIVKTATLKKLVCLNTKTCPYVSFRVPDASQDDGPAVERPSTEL

SMILES	IC50 [1]	IC50 [2, 3]	IC50 [2]	ED30 (rat paw edema)
Cc1c(CC(C)CC(=O)O)c2cc(Cl)ccc2n1Cc1ccc(Br)cc1 (racemic) [Example 34, 4-[1-(4-Bromobenzyl)-5-chloro-2-methyl-1 H-indol-3-yl]-3-methyl-butanoic acid]	> 10000 nM	5 nM		0.51 mg/kg
COc1ccc2c(c1)c(CCCC(=O)O)c(C)n2Cc1ccc(Br)cc1 [Example 4, 4-(1-(4-Bromobenzyl)-5-methoxy-2-methyl-1H-indol-3-yl)butanoic acid]	> 10000 nM	6 nM		1.2 mg/kg
COc1ccc2c(c1)c(CC(=O)O)c(C)n2C(=O)c1ccc(Cl)cc1 [Indomethacin, reference compound]				0.9 mg/kg
COc1ccc2c(c1)c(C(C)C(=O)O)c(C)n2Cc1ccc(Cl)cc1 (stereo not shown) [MK-555, a-(1-p-chlorobenzyl-2-methyl-5-methoxy-3-indolyl)propionic acid, reference compound]				3 mg/kg

Further lines, with some results ahead:

IC50 [1]	IC50 [2, 3]	IC50 [2]	SMILES	ED30 (rat paw edema)
> 100000 nM		16 nM	COc1ccc2c(c1)c(CC1(CC(=O)O)CC1)c(C)n2Cc1ccc(Br)cc1 [Example 2, [4-(1-(4-Bromobenzyl) -5-methoxy-2-methyl-1 H-indol-3-yl) -3-(ethane-1,2-diyl)]butanoic acid, sodium salt]	0.54 mg/kg
> 10000 nM			COc1ccc2c(c1)c(C[C@@H](C)CC(=O)O)c(C)n2Cc1ccc(Br)cc1 [Example 8, (3R) 4-(1-(4-Bromobenzyl)-5-methoxy-2-methyl-1H-indol-3-yl)-3-methylbutanoic ac id]	0.6 mg/kg
> 50000 nM	6 nM		Cc1c(CCCC(=O)O)c2cc(Br)ccc2n1Cc1ccc(Br)cc1 [Example 24, 4-[5-Bromo-1-(4-bromobenzyl)-2-methyl-1H-indol-3-yl]butanoic acid]	~3 mg/kg
> 25000 nM	9 nM		COc1ccc2c(c1)c(CC1(CC(=O)O)CC1)c(C)n2Cc1ccc(Cl)cc1 [Example 25, 4-[1-(4-Chlorobenzyl)-5-methoxy-2-methyl-1H-indol-3-yl]-3-(ethane-1,2-diyl)butanoic acid]	> 3 mg/kg
